Results as given in US9266820B2, “Nitric oxide donor compounds” (NICOX S.A., priority 2007, dated 2016).
Where a name gives a salt, the structure may show the parent alone. Read-outs that look alike come from different tables or passages of the source.

Test system: isolated rabbit thoracic aorta preparations
Assay: vasorelaxant activity in isolated rabbit thoracic aorta preparations precontracted with noradrenaline
Type: cell-based
Settings: read-out: IC50 (μM) ± sem
Procedure: The ability of the compounds of the present invention to release nitric oxide was assessed testing their vasorelaxant activity in isolated rabbit thoracic aorta preparations (Wanstall J. C. et al., Br. J. Pharmacol., 134:463-472, 2001).
Male New Zealand rabbits were anaesthetized with thiopental-Na (50 mg/kg, iv), sacrificed by exsanguinations and then the thorax was opened and the aorta dissected. Single ring preparations (4 mm in length) of thoracic aorta were set up in physiological salt solution (PSS) at 37° C. in small organ chambers (5 ml). The composition of PSS was (mM): NaCl 130, NaHCO3 14.9, KH2PO4 1.2, MgSO4 1.2, HEPES 10, CaCl2, ascorbic acid […] and glucose 1.1 (95%)2/5% CO2; pH 7.4). Each ring was mounted under 2 g passive tension in 5 ml organ bath. Isometric tension was recorded with a Grass transducer (Grass FT03) attached to a BIOPAC MP150 System. Preparations were allowed to equilibrate for 1 h, then contracted submaximally with noradrenaline (NA, 1 μM) and, when the contraction was stable, acetylcholine (ACh, 10 μM) was added. A relaxant response to ACh indicated the presence of a functional endothelium. When a stable precontraction was reached, a cumulative concentration-response curve to either of the vasorelaxant agents was obtained in the presence of a functional endothelium. Time intervals between different concentrations were based on the time needed to reach a full response.
Moreover, the nitric oxide-dependent vascular relaxation elicited by the tested compounds was examined preincubating the aortic rings with the soluble guanylyl cyclase inhibitor ODQ (1H-(1,2,4)-oxadiazol(4,3-a)quinoxalin-1-one) at 10 μM for 20 min. Responses to vasorelaxing agents were measured from the plateau of NA contraction. The IC50 (concentration giving 50% reversal of NA contraction) was interpolated from the plots of relaxant-response vs log molar concentration of tested compound.
During the experimental period, the plateau obtained with NA was stable without significant spontaneous loss of contraction in the aortic rings.

[1] = Oryctolagus cuniculus, concentration giving 50% reversal of NA (1 μM) contraction, aortic rings with functional endothelium
[2] = concentration giving 50% reversal of NA (1 μM) contraction, aortic rings with functional endothelium

SMILES	IC50 [1]	other results
CC(C)(C)OC(=O)N1CCCC1C(=O)OCc1ccc(CO[N+](=O)[O-])cc1 (stereo not drawn) [Compound 7, 1-tert-Butyl 2-(4-(nitrooxymethyl)benzyl)pyrrolidine-1,2-dicarboxylate]	2.4 ± 0.5 µM	–
CC(C)(C)OC(=O)N1CCCC1C(=O)Oc1cccc(CO[N+](=O)[O-])c1 (stereo not drawn) [Compound 8]	–	IC50 [2]: 2.6 ± 0.6 µM
CC(C)(C)OC(=O)N1CCCC1C(=O)OCCOCCO[N+](=O)[O-] (stereo not drawn) [Compound 9]	–	IC50 [2]: 4.5 ± 1.4 µM
CC(C)(C)OC(=O)NCC(=O)NCCCCO[N+](=O)[O-] [Compound 12, tert-butyl 2-(4-(nitrooxy)butylamino)-2-oxoethylcarbamate]	10.2 ± 4.2 µM	–
CC(C)(C)OC(=O)NC(CCc1ccccc1)C(=O)OCc1ccc(CO[N+](=O)[O-])cc1 (stereo not drawn) [Compound 13, 4-[(Nitrooxy)methyl]benzyl 2-(tert-butoxycarbonylamino)-4-phenylbutanoate]	10.2 ± 0.5 µM	–
CC(C)(C)OC(=O)N[C@@H](Cc1ccccc1)C(=O)OCCCCO[N+](=O)[O-] [Compound 15, (S)-4-(nitrooxy)butyl 2-(tert-butoxycarbonylamino)-3-phenylpropanoate]	12.6 ± 6.4 µM	–
CC(C)(C)OC(=O)NC(CCc1ccccc1)C(=O)Oc1cccc(CO[N+](=O)[O-])c1 (stereo not drawn) [Compound 86, 3-[(Nitrooxy)methyl]phenyl 2-(tert-butoxycarbonylamino)-4-phenylbutanoate]	5.2 ± 0.9 µM	–
CC(C)(C)OC(=O)NCC(=O)OCc1ccc(CO[N+](=O)[O-])cc1 [Compound 87, 4-[(nitrooxy)methyl]benzyl 2-(tert-butoxycarbonylamino)acetate]	2.1 ± 0.4 µM	–
CC(C)(C)OC(=O)N[C@@H](Cc1ccccc1)C(=O)OCCCC[C@H](CO[N+](=O)[O-])O[N+](=O)[O-] [Compound 123]	–	IC50 (Oryctolagus cuniculus): 0.64 ± 0.14 µM
NC(COC(=O)OCCCCO[N+](=O)[O-])C(=O)O (stereo not drawn) [Compound 407, 2-amino-3-((4-(nitrooxy)butoxy)carbonyloxy)propanoic acid hydrochloride]	–	IC50 (Oryctolagus cuniculus): 16 ± 6.4 µM
CC(C)(C)OC(=O)NCCOC(=O)CCCO[N+](=O)[O-] [Compound 508, 2-(tert-butoxycarbonylamino)ethyl 4-(nitrooxy)butanoate]	4.4 ± 0.7 µM	–
CC(C)(C)OC(=O)N[C@H](COC(=O)CCCO[N+](=O)[O-])Cc1ccccc1 [Compound 511, (S)-2-(tert-butoxycarbonylamino)-3-phenylpropyl 4-(nitrooxy)butanoate]	9.5 ± 3.6 µM	–
CC(C)(C)OC(=O)N1CCCC1C(=O)OCCCCO[N+](=O)[O-] (stereo not drawn) [Example 14, 1-tert-butyl 2-(4-(nitrooxy)butyl)pyrrolidine-1,2-dicarboxylate]	1.9 ± 0.4 µM	–
CC(C)(C)OC(=O)N1CCCC1C(=O)OCCCO[N+](=O)[O-] (stereo not drawn) [Example 15, 1-tert-butyl 2-(3-(nitrooxy)propyl)pyrrolidine-1,2-dicarboxylate]	1.2 ± 0.33 µM	–
CC(C)(C)OC(=O)NC(CCc1ccccc1)C(=O)OCCOCCO[N+](=O)[O-] (stereo not drawn) [Example 21, 2-(2-(Nitrooxy)ethoxy)ethyl 2-(tert-butoxycarbonylamino)-4-phenylbutanoate]	8 ± 1.8 µM	–
